Measured values taken from PubChem BioAssay (NCI).
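Briefly, cells in 96-well plates were exposed to five compound concentrations for 48 h, and endpoints were estimated by linear interpolation. TGI marks complete inhibition of growth.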

Experiments:
Assay in all cases: growth of human tumour cells (NCI), 48 h
[1] = tested on: RXF 393 renal
[2] = tested on: NCI-H522 lung
[3] = tested on: IGROV1 ovarian
[4] = tested on: OVCAR-4 ovarian
[5] = tested on: SNB-75 CNS
[6] = tested on: LOX IMVI melanoma
[7] = tested on: UACC-257 melanoma
[8] = tested on: HS 578T breast
[9] = tested on: MDA-MB-435
[10] = tested on: HCT-15 colon
[11] = tested on: HOP-62 NSCLC
[12] = tested on: EKVX NSCLC
[13] = tested on: 786-0 renal
[14] = tested on: SF-539 CNS
[15] = tested on: SK-MEL-28 melanoma
[16] = tested on: RPMI-8226 leukemia
[17] = tested on: SNB-19 CNS
[18] = tested on: HCT-116 colon
[19] = tested on: SN12C renal
[20] = tested on: NCI-H460 lung
[21] = tested on: DU-145 prostate
[22] = tested on: SR leukemia
[23] = tested on: NCI-H226 lung
[24] = tested on: K-562 leukemia
[25] = tested on: ACHN renal
[26] = tested on: HT29 colon
[27] = tested on: HL-60(TB) leukemia
[28] = tested on: OVCAR-8 ovarian
[29] = tested on: MDA-N
[30] = tested on: PC-3 prostate
[31] = tested on: TK-10 renal
[32] = tested on: SK-MEL-2 melanoma
[33] = tested on: CCRF-CEM leukemia
[34] = tested on: OVCAR-5 ovarian
[35] = tested on: MOLT-4 leukemia
[36] = tested on: UO-31 renal
[37] = tested on: M14 melanoma
[38] = tested on: NCI/ADR-RES ovarian
[39] = tested on: NCI-H23 lung
[40] = tested on: SF-268 CNS
[41] = tested on: SK-OV-3 ovarian
[42] = tested on: SK-MEL-5 melanoma
[43] = tested on: KM12 colon
[44] = tested on: MCF7 breast
[45] = tested on: HCC-2998 colon
[46] = tested on: U251 CNS
[47] = tested on: T-47D breast
[48] = tested on: HOP-92 NSCLC
[49] = tested on: SF-295 CNS
[50] = tested on: MALME-3M melanoma
[51] = tested on: A549 NSCLC
[52] = tested on: SW-620 colon
[53] = tested on: OVCAR-3 ovarian
[54] = tested on: BT-549 breast
[55] = tested on: A498 renal
[56] = tested on: COLO 205 colon
[57] = tested on: CAKI-1 renal
[58] = tested on: UACC-62 melanoma
[59] = tested on: MDA-MB-231 breast

Measured: TGI

CCCC(=O)NC(NC1CCCCC1)(C(=O)OCC)C(F)(F)F (stereo unspecified)
not listed: [54] | [55] | [56] | [57] | [58] | [59]
> 100 µM: all other assays above

O=c1oc2ccccc2cc1-c1cc2ccccn2c1
not listed: [14] | [19] | [22] | [45] | [47] | [50]
> 100 µM: all other assays above
